# Laboratory results: US8202836B2, “Modified PYY (3-36) peptides and their effects on feeding behavior” (Imperial Innovations Limited, priority 2005, dated 2012)
# Assays:
# [1] = tested on: Male C57BL/6 mice; assay: Food intake after intraperitoneal injection in overnight-fasted mice; assay type: in vivo; settings: for reduction of food intake by 30 μg/kg versus a 100 μg/kg dose of PYY(3-36): dose response, peripheral injection after overnight fast
# Description: (§1) Male C57BL/6 mice (20-30 g) were used for all mouse experiments. Male Wistar rats were used for the rat experiments. Mice or rats were individually housed in IVC cages. Animals were randomised by weight and fasted overnight for 16 hrs before intraperitoneal injection at 9 am. Food intake was measured at 1, 2, 4, 6 and 24 hours post injection. All peptide solutions were prepared freshly the morning of the study and injected as 100 μl. All statistics are calculated using the student's paired t-test.
# Mice were injected with PYY(3-36) 100 μg/kg, allo_ILeu^3 PYY(3-36) 100 μg/kg, D_allo_ILeu^3 PYY(3-36) 100 μg/kg or saline (n=10/group) and food intake was measured at time intervals over 24 hours. In the Figure, significance versus saline is indicated by *=p<0.05, **=p<0.01, ***=p<0.001 paired t-test.
# (§2) 30 μg/kg or 100 μg/kg of PYY(3-36) or D_allo_ILeu^3 PYY(3-36) was injected after an overnight fast and food intake was measured at time intervals over a period of 24 hours. In the Figures, significance versus saline is indicated by *=p<0.05, **=p<0.01, ***=p<0.001 paired t-test.
# [2] = tested on: Male Wistar rats; assay: Food intake after intraperitoneal injection in overnight-fasted rats; assay type: in vivo; settings: for reduction of food intake by 30 μg/kg versus a 100 μg/kg dose of PYY(3-36): dose response, peripheral injection after overnight fast
# Description: as §1
# as §2, with “The experiment was identical to Example 2, except that Wistar rats were used instead of C57BL/6 mice. 30” for “30”
# [3] = from 30 μg/kg vs 100 μg/kg comparison
substance,measurement,setting,value
D-allo-Ile^3 PYY3-36 [D_allo_ILeu^3 PYY(3-36)],decrease of food intake over the total period 0-4 hours versus native PYY3-36,[1]; 0-4 hours,to a greater extent
same,"cumulative food intake compared to the PYY(3-36) injected group (p, paired t-test)","[1]; 100 μg/kg each, 0-1 hr",0.0138
same,"cumulative food intake compared to the PYY(3-36) injected group (p, paired t-test)","[1]; 100 μg/kg each, 0-2 hr",0.0063
same,"cumulative food intake compared to the PYY(3-36) injected group (p, paired t-test)","[1]; 100 μg/kg each, 0-4 hr",0.0003
same,"cumulative food intake compared to the PYY(3-36) injected group (p, paired t-test)","[1]; 100 μg/kg each, 0-6 hr",0.0024
same,"food intake over a 24 hr period compared to the PYY(3-36) 100 μg/kg group (p, paired t-test)","[1]; 100 μg/kg each, 24 hr",0.0554
same,food intake compared with saline,"[1]; 100 μg/kg intraperitoneal after overnight fast, n=10/group",significantly decreased food intake
same,reduction of food intake by 30 μg/kg versus a 100 μg/kg dose of PYY(3-36),[1],at least as powerful
same,reduction of food intake by 30 μg/kg versus a 100 μg/kg dose of PYY(3-36),[1]; listed as D-allo-Ile^3 PYY3-36,same decrease in food intake
same,superiority in efficacy over PYY(3-36),[1]; [3],3 fold
same,decrease of food intake over the total period 0-4 hours versus native PYY3-36,[2]; 0-4 hours,to a greater extent
same,reduction of food intake by 30 μg/kg versus a 100 μg/kg dose of PYY(3-36),[2],at least as powerful
same,reduction of food intake by 30 μg/kg versus a 100 μg/kg dose of PYY(3-36),[2]; listed as D-allo-Ile^3 PYY3-36,same decrease in food intake
same,superiority in efficacy over PYY(3-36),[2]; [3],3 fold
same,decrease in food intake versus the same quantity of normal human PYY3-36,[2]; same quantity,greater decrease in food intake
